# Test results from ChEMBL document CHEMBL5291721, “A preclinical secondary pharmacology resource illuminates target-adverse drug reaction associations of marketed drugs” (Nat Commun, 2023).
# Experiments:
# [1] = target: T1, Alpha-2A adrenergic receptor (Homo sapiens, UniProt P08913); assay type: functional, cell-based
# T1 sequence (P08913 whole entry): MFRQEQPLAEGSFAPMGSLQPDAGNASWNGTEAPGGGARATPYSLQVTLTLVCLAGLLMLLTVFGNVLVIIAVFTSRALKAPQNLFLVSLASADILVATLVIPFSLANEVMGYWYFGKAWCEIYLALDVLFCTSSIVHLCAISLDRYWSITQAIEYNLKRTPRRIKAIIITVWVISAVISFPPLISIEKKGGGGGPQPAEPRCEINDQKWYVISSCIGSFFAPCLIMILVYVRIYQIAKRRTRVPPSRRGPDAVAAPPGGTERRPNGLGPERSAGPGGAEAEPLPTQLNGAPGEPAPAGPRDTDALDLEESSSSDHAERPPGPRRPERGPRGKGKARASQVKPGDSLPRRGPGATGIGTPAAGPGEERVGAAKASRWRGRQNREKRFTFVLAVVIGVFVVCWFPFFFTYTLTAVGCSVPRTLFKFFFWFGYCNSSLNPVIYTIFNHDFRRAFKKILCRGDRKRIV
# [2] = target: 5-hydroxytryptamine receptor 2B (Homo sapiens, UniProt P41595); assay type: functional, cell-based
# [3] = target: T2, Type-1 angiotensin II receptor (Homo sapiens, UniProt P30556)
# T2 sequence (P30556 whole entry): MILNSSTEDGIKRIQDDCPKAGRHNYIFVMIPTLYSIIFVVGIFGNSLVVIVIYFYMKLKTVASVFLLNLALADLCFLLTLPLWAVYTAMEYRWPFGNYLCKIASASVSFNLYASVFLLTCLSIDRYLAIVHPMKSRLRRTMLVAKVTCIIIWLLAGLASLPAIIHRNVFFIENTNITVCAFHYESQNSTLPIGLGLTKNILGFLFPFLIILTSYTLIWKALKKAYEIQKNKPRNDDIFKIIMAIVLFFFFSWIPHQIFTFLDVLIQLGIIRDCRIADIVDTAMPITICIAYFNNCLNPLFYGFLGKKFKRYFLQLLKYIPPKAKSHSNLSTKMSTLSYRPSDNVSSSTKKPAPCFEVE
# Adenosine receptor A1 = target: T3, Adenosine receptor A1 (Homo sapiens, UniProt P30542)
# T3 sequence (P30542 whole entry): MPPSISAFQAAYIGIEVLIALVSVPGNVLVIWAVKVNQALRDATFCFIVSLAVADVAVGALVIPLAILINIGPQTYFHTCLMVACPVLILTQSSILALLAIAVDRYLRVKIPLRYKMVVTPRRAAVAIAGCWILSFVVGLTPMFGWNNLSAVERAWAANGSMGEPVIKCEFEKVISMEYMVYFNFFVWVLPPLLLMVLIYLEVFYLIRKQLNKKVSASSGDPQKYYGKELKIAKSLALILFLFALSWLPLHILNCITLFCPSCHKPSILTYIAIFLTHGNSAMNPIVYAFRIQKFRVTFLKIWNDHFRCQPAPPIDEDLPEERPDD
# Mu-type opioid receptor = Mu-type opioid receptor (Homo sapiens, UniProt P35372); test: biochemical; assay type: functional
# [4] = target: T4, Prostaglandin G/H synthase 1 (Rattus norvegicus, UniProt Q63921); assay type: functional
# T4 sequence (Q63921 whole entry): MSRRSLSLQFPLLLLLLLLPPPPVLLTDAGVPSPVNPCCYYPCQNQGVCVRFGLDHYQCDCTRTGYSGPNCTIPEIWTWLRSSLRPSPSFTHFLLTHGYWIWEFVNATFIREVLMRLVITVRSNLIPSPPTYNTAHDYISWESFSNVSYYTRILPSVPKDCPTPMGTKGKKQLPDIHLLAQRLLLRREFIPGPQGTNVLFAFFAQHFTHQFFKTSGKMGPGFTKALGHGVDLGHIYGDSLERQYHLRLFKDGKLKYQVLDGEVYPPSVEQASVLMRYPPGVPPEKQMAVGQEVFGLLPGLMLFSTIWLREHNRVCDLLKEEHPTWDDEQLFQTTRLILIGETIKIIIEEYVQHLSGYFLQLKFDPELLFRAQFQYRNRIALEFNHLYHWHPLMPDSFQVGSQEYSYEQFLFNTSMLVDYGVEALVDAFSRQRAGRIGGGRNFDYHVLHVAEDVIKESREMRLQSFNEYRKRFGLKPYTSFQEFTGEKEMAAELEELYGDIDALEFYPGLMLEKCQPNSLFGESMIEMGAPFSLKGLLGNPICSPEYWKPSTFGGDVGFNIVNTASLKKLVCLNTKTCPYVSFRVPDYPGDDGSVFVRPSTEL
# Vasopressin V1a receptor = Vasopressin V1a receptor (Homo sapiens, UniProt P37288)
# Adenosine receptor A2a = Adenosine receptor A2a (Homo sapiens, UniProt P29274)
# Progesterone receptor = target: T5, Progesterone receptor (Homo sapiens, UniProt P06401); assay type: functional
# T5 sequence (P06401 whole entry): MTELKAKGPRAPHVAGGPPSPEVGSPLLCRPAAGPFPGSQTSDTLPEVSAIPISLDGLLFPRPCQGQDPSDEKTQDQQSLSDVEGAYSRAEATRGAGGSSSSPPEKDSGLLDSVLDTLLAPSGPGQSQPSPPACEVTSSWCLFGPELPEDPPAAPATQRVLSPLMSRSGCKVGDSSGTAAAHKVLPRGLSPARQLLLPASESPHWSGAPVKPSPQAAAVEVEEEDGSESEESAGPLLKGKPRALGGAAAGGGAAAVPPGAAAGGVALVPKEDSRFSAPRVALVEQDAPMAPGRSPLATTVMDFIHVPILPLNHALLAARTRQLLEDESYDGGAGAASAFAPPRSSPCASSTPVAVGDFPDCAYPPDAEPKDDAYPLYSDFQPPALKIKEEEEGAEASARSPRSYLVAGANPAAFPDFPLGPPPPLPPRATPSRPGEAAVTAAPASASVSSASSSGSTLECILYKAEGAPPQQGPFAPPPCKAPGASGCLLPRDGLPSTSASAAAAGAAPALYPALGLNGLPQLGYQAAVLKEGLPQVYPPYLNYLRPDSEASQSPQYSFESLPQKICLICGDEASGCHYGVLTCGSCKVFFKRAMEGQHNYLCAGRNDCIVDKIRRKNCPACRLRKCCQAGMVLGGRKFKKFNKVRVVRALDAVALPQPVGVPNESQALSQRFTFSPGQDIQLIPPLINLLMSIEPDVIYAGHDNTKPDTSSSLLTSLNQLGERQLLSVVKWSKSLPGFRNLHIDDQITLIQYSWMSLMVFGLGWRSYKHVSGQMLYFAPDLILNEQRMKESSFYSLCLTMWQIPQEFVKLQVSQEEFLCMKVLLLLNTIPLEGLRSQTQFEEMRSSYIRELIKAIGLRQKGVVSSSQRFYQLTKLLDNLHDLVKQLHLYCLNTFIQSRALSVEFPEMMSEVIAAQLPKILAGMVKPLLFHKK
# Also: assay procedure not described here.
# Mu-type opioid receptor, sequence (P35372 whole entry): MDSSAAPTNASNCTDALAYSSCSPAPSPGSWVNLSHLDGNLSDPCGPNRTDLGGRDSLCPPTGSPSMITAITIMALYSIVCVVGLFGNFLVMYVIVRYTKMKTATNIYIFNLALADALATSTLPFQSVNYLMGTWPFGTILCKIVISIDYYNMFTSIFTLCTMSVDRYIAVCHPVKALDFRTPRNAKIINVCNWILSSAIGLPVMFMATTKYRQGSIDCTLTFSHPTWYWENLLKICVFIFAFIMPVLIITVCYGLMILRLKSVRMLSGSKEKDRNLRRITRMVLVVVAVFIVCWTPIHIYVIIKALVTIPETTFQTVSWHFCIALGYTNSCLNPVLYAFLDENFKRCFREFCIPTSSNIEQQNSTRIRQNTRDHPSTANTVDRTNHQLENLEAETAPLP
# Adenosine receptor A2a, sequence (P29274 whole entry): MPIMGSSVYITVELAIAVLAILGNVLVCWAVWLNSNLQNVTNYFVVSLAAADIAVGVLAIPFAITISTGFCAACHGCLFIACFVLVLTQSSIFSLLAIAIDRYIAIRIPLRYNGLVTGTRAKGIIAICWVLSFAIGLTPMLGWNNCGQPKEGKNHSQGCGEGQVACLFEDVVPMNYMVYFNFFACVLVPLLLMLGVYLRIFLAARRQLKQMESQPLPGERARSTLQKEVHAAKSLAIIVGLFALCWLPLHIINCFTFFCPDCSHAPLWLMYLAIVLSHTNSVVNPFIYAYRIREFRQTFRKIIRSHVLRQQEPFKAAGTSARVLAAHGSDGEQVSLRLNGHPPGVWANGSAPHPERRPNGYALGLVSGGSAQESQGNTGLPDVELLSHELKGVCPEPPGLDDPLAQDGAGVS
# 5-hydroxytryptamine receptor 2B, sequence (P41595 whole entry): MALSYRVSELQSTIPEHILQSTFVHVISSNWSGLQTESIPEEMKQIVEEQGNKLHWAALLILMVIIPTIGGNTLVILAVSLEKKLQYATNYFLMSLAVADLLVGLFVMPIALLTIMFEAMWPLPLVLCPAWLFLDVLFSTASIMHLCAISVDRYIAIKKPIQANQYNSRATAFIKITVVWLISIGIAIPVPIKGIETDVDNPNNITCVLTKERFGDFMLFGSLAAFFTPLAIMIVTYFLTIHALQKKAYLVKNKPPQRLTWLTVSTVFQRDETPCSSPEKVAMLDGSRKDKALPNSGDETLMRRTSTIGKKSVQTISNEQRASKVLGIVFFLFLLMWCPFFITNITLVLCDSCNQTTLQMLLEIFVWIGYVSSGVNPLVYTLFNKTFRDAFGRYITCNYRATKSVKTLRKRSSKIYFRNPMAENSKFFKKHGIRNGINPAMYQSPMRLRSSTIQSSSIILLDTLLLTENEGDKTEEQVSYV
# Vasopressin V1a receptor, sequence (P37288 whole entry): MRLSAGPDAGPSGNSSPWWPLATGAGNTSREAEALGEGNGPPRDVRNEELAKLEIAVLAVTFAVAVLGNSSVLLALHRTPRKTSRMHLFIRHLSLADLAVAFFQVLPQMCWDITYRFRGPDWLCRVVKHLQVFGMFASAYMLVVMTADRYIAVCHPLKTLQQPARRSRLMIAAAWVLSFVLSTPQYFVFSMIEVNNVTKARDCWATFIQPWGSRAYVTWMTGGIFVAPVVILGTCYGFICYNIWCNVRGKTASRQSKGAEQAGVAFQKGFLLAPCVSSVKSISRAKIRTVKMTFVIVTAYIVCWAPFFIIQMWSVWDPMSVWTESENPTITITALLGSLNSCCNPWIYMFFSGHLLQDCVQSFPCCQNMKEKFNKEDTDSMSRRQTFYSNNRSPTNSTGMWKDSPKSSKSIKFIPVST
Structure (SMILES),AC50 [1] [µM],AC50 [2] [µM],AC50 [3] [µM],AC50 (Adenosine receptor A1) [µM],AC50 (Mu-type opioid receptor) [µM],AC50 [4] [µM],AC50 (Vasopressin V1a receptor) [µM],AC50 (Adenosine receptor A2a) [µM],AC50 (Progesterone receptor) [µM]
O=C(C[S+]([O-])C(c1ccccc1)c1ccccc1)NO (stereo unspecified),> 30,> 30,> 30,> 30,> 30,> 30,> 30,> 30,> 30
Nc1ncnc2c1ncn2[C@@H]1O[C@H](COP(=O)(O)O)[C@@H](O)[C@H]1O [ADENOSINE PHOSPHATE],> 30,> 30,> 30,> 30,> 30,> 30,> 30,> 30,> 30
CCCC(CCC)C(=O)O[C@H]1C[C@H]2CC[C@@H](C1)[N+]2(C)C [ANISOTROPINE],> 30,> 30,> 30,> 30,> 30,> 30,> 30,> 30,> 30
CN1C(=O)COc2c(C(=O)NC3CN4CCC3CC4)cc(Cl)cc21 (stereo unspecified) [AZASETRON],> 10,> 30,> 30,> 30,> 30,> 30,> 30,> 30,> 30
Cc1cc2c(OCC(CNC(C)(C)C)OC(=O)c3ccccc3)cccc2[nH]1 (stereo unspecified) [BOPINDOLOL],> 30,> 30,> 30,> 30,> 30,3.5,> 30,> 30,> 30
CCC(C(=O)O)c1ccc(CC(C)C)cc1 (stereo unspecified) [BUTIBUFEN],> 30,> 30,> 30,> 30,> 30,,> 30,> 30,> 30
CCCCCOC(=O)Nc1nc(=O)n([C@@H]2O[C@H](C)[C@@H](O)[C@H]2O)cc1F [CAPECITABINE],> 30,> 30,> 30,> 30,> 30,> 30,> 30,> 30,> 30
CCOC(=O)[C@H](CCc1ccccc1)N[C@H]1CCCN2CCC[C@@H](C(=O)O)N2C1=O [CILAZAPRIL],> 30,> 30,> 30,> 30,> 30,> 30,> 30,> 30,> 30
COC(=O)[C@H]1[C@@H](OC(=O)c2ccccc2)C[C@@H]2CC[C@H]1N2C [COCAINE],> 30,> 30,> 30,> 30,> 30,> 30,> 30,> 30,> 30
CC(=O)O[C@@]12CO[C@@H]1C[C@H](O)[C@@]1(C)C(=O)[C@H](O)C3=C(C)[C@@H](OC(=O)[C@H](O)[C@@H](NC(=O)OC(C)(C)C)c4ccccc4)C[C@@](O)([C@@H](OC(=O)c4ccccc4)[C@H]21)C3(C)C [DOCETAXEL ANHYDROUS],> 30,> 30,> 30,> 30,> 30,> 30,,> 30,> 30
CCCCCCCCCCCC[N+](C)(C)CCOc1ccccc1 [DOMIPHEN],13,> 30,14,> 30,> 30,> 30,11,> 30,4.5
COc1c(N2CCNC(C)C2)c(F)cc2c(=O)c(C(=O)O)cn(C3CC3)c12 (stereo unspecified) [GATIFLOXACIN],> 10,> 10,> 10,> 10,28,> 10,,> 10,> 10
O=C1CN=C(c2ccccc2)c2cc(Cl)ccc2N1CC(F)(F)F [HALAZEPAM],> 30,> 30,> 30,> 30,1.2,> 30,> 30,> 30,> 30
Cc1cccc(C)c1NC(=O)C1CCCCN1C (stereo unspecified) [MEPIVACAINE],> 30,> 30,> 30,> 30,> 30,> 30,,> 30,> 30
CCCOc1ccc(C(=O)OCCN(CC)CC)cc1N [PROPARACAINE],> 30,> 30,> 30,> 30,> 30,0.75,,> 30,> 30
O=C1NCCN1CCN1CCC(c2cn(-c3ccc(F)cc3)c3ccc(Cl)cc23)CC1 [SERTINDOLE],,> 30,> 30,> 30,> 30,> 30,> 30,> 30,> 30
CC[C@]1(O)C[C@@H]2CN(CCc3c([nH]c4ccccc34)[C@@](C(=O)OC)(c3cc4c(cc3OC)N(C)[C@H]3[C@@](O)(C(N)=O)[C@H](O)[C@]5(CC)C=CCN6CC[C@]43[C@@H]65)C2)C1 [VINDESINE],> 30,> 30,> 30,> 30,> 30,25,,> 30,> 30
